What all share (format): in vivo
In one test the test system is Lolium rigidum (LOLRI). Description: Pre-emergence herbicidal action against LOLRI. Summed up: (§1)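 Application rates ran to 320 g/ha or lower, with several dosages tested on the same weeds. The compound, as wettable powder or emulsion concentrate, is sprayed pre-emergence onto soil over sown seeds; greenhouse growth follows, and effect is rated visually after roughly 3 weeks.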

The test system of test [1] is Pharbitis purpurea (PHBPU). Description: Pre-emergence herbicidal action against PHBPU. Summed up: as §1
Another test has as its system Setaria viridis (SETVI). In words: Pre-emergence herbicidal action against SETVI. The procedure, abridged: as §1
In test [2] the test system is Verconica persica (VERPE). Description: Pre-emergence herbicidal action against VERPE. Summed up:
as §1

Test [3] deals with Viola tricolor (VIOTR). In words: Pre-emergence herbicidal action against VIOTR. The procedure, abridged: as §1
A further test deals with Avena fatua (AVEFA). Description: Post-emergence herbicidal action against AVEFA. As to conditions: visual rating about 3 weeks after treatment. The procedure, abridged:
(§2)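 Rates were 320 g/ha or below, applied as aqueous WP/EC spray with 0.5% additive (600 l/ha) onto one-leaf-stage plants. About 3 weeks later in the greenhouse, damage was scored visually against untreated plants on a 0–100% scale, where 100% means plants died.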

For test [4], the system named is Matricaria inodora (MATIN). In words: Post-emergence herbicidal action against MATIN. The procedure, abridged:
as §2

The test system of test [5] is Pharbitis purpurea (PHBPU). In words: Post-emergence herbicidal action against PHBPU. Summed up:
as §2

Test [6] relates to Verconica persica (VERPE). In words: Post-emergence herbicidal action against VERPE. Summed up: as §2
Test [7] relates to Viola tricolor (VIOTR). Description: Post-emergence herbicidal action against VIOTR. The procedure, abridged: as §2

Regarding `C[C@@H](Oc1nn(-c2ccccn2)c(-c2cncc(F)c2)c1Cl)C(=O)O` [Example I-218], the “Pre-emergence action against LOLRI in %” value with Lolium rigidum (LOLRI) (dosage 80 g/ha) and in the test on Lolium rigidum (LOLRI) (dosage 320 g/ha) was 100% each time. The “Pre-emergence action against PHBPU in %” value in test [1] (dosage 80 g/ha) and in [1] (dosage 320 g/ha) was 90% throughout. In addition, the “Pre-emergence action against SETVI in %” value in the test with Setaria viridis (SETVI) (dosage 80 g/ha) is on record as 90%; with Setaria viridis (SETVI) (dosage 320 g/ha), 100%. The “Pre-emergence action against VERPE in %” value in test [2] (dosage 80 g/ha) is recorded as 90%; in [2] (dosage 320 g/ha) it was 100%. The “Pre-emergence action against VIOTR in %” value in the test on Viola tricolor (VIOTR) [3] (320 g/ha, Viola tricolor) came to 100%; in the test with Viola tricolor (VIOTR) [3] (dosage 80 g/ha), 100%. Also, the entries for the “Post-emergence action against AVEFA in %” value with Avena fatua (AVEFA) (80 g/ha) and with Avena fatua (AVEFA) (320 g/ha) were 80% and 90%, respectively. In addition, in [4] (dosage 320 g/ha), the “Post-emergence action against MATIN in %” value turned out to be 80%. Besides, the results for the “Post-emergence action against PHBPU in %” value in test [5] (dosage 80 g/ha) and in [5] (dosage 320 g/ha) were 90% and 100%, respectively. The “Post-emergence action against VERPE in %” value worked out at 80% in test [6] (320 g/ha, VERPE) and 80% in [6] (dosage 80 g/ha). The “Post-emergence action against VIOTR in %” value with Viola tricolor (VIOTR) [7] (80 g/ha) and in the test on Viola tricolor (VIOTR) [7] (320 g/ha) was 80% in each case.
Consider `COC(=O)[C@H](C)COC(=O)COc1nn(-c2ccccn2)c(-c2cncc(F)c2)c1Cl` [Example I-192], for which the “Pre-emergence action against LOLRI in %” value in the test with Lolium rigidum (LOLRI) (dosage 80 g/ha) is 80%; in the test on Lolium rigidum (LOLRI) (dosage 320 g/ha), 100%. Also, the “Pre-emergence action against PHBPU in %” value in [1] (dosage 80 g/ha) and in test [1] (dosage 320 g/ha) was 90% each time. For the same compound, the “Pre-emergence action against SETVI in %” value in the test on Setaria viridis (SETVI) (dosage 80 g/ha) was 90%; with Setaria viridis (SETVI) (dosage 320 g/ha), 100%. In addition, the “Pre-emergence action against VERPE in %” value in test [2] (dosage 320 g/ha) was determined as 90%. Moreover, the “Pre-emergence action against VIOTR in %” value in the test with Viola tricolor (VIOTR) [3] (320 g/ha, Viola tricolor) stood at 100%; with Viola tricolor (VIOTR) [3] (dosage 80 g/ha), 80%. In addition, the “Post-emergence action against AVEFA in %” value in the test on Avena fatua (AVEFA) (320 g/ha) is listed as 80%. For the same compound, the “Post-emergence action against MATIN in %” value in test [4] (dosage 320 g/ha) was determined as 80%. For the same compound, the “Post-emergence action against PHBPU in %” value in test [5] (dosage 80 g/ha) and in [5] (dosage 320 g/ha) was 90% each time. In addition, the “Post-emergence action against VERPE in %” value in test [6] (320 g/ha, VERPE) was determined as 80%; in test [6] (dosage 80 g/ha) it was 80%. Moreover, the “Post-emergence action against VIOTR in %” value with Viola tricolor (VIOTR) [7] (320 g/ha) came out at 80%.
For the compound `COC(=O)[C@@H](C)Oc1nn(-c2nc(F)ccc2F)c(-c2cncc(F)c2)c1C1CC1` [Example I-171], the “Pre-emergence action against LOLRI in %” value with Lolium rigidum (LOLRI) (dosage 80 g/ha) and in the test on Lolium rigidum (LOLRI) (dosage 320 g/ha) was 100% throughout. Moreover, the “Pre-emergence action against PHBPU in %” value in test [1] (dosage 80 g/ha) is 80%; in test [1] (dosage 320 g/ha), 90%. Moreover, the “Pre-emergence action against SETVI in %” value in the test with Setaria viridis (SETVI) (dosage 80 g/ha) and in the test on Setaria viridis (SETVI) (dosage 320 g/ha) was 100% throughout. Moreover, the “Pre-emergence action against VERPE in %” value in test [2] (dosage 80 g/ha) and in test [2] (dosage 320 g/ha) was 100% in each case. Also, the “Pre-emergence action against VIOTR in %” value in the test on Viola tricolor (VIOTR) [3] (320 g/ha, Viola tricolor) was 100%; in the test with Viola tricolor (VIOTR) [3] (dosage 80 g/ha), 100%. Further, the “Post-emergence action against AVEFA in %” value with Avena fatua (AVEFA) (80 g/ha) and in the test on Avena fatua (AVEFA) (320 g/ha) was 90% each time. Moreover, the “Post-emergence action against MATIN in %” value in test [4] (dosage 80 g/ha) was 80%; in test [4] (dosage 320 g/ha), 90%. The “Post-emergence action against PHBPU in %” value stood at 80% in test [5] (dosage 80 g/ha) and 90% in test [5] (dosage 320 g/ha). The “Post-emergence action against VERPE in %” value in test [6] (320 g/ha, VERPE) is recorded as 90%; in [6] (dosage 80 g/ha) it was 80%. The “Post-emergence action against VIOTR in %” value in the test with Viola tricolor (VIOTR) [7] (80 g/ha) and with Viola tricolor (VIOTR) [7] (320 g/ha) was 90% in each case.
Take `CCOC(=O)COc1nn(-c2ccccn2)c(-c2ccc(F)nc2)c1Br` [Example I-02]: the “Pre-emergence action against LOLRI in %” value with Lolium rigidum (LOLRI) (dosage 80 g/ha) worked out at 90%; in the test on Lolium rigidum (LOLRI) (dosage 320 g/ha), 100%. In addition, the “Pre-emergence action against PHBPU in %” value in test [1] (dosage 320 g/ha) worked out at 90%. For the same compound, the “Pre-emergence action against SETVI in %” value in the test with Setaria viridis (SETVI) (dosage 80 g/ha) and with Setaria viridis (SETVI) (dosage 320 g/ha) was 100% throughout. Besides, the “Pre-emergence action against VERPE in %” value in test [2] (dosage 320 g/ha) is listed as 90%. The “Pre-emergence action against VIOTR in %” value in the test on Viola tricolor (VIOTR) [3] (320 g/ha, Viola tricolor) came out at 100%; in the test with Viola tricolor (VIOTR) [3] (dosage 80 g/ha) it was 100%. The “Post-emergence action against AVEFA in %” value in the test on Avena fatua (AVEFA) (320 g/ha) turned out to be 80%. In addition, the “Post-emergence action against MATIN in %” value in test [4] (dosage 80 g/ha) and in [4] (dosage 320 g/ha) was 80% throughout. The “Post-emergence action against PHBPU in %” value was found to be 90% in [5] (dosage 80 g/ha) and 100% in [5] (dosage 320 g/ha). Moreover, the “Post-emergence action against VERPE in %” value in [6] (320 g/ha, VERPE) is given as 80%; in test [6] (dosage 80 g/ha) it was 80%. Also, the “Post-emergence action against VIOTR in %” value in the test with Viola tricolor (VIOTR) [7] (320 g/ha) is reported as 80%.
